Laboratory results published in ChEMBL document CHEMBL1136284, “An aminopyridazine-based inhibitor of a pro-apoptotic protein kinase attenuates hypoxia-ischemia induced acute brain injury” (Bioorg Med Chem Lett, 2003).

Assays:
[1] = Inhibition of Death associated protein kinase
[2] = Displacement of ATP from Death associated protein kinase
[3] = target: Protein kinase C (PKC); experiment: Inhibition of Protein kinase C; format: protein assay
[4] = target: cAMP-dependent protein kinase (PKA) (Homo sapiens, UniProt P22694+P17612+P22612); experiment: Inhibition of Protein kinase A; format: protein assay
[5] = species on record: Rattus norvegicus; experiment: Brain hemisphere weight loss 6 hr after HI injury in rats
[6] = system: Rattus norvegicus; experiment: Brain hemisphere weight loss after 5 mg/kg ip administration prior to HI injury in rats; details: route intraperitoneal
[7] = target: CaM kinase II (Homo sapiens, UniProt Q13557+Q13555+Q13554+Q9UQM7); experiment: Inhibition of Calcium/calmodulin-dependent protein kinase type II; format: protein assay

| IC50 [3] | IC50 [4] | IC50 [7] | Structure (SMILES) | IC50 [1] | Ki [1] | Ki [2] | Weight loss [5] | Weight loss [6] |
| --- | --- | --- | --- | --- | --- | --- | --- | --- |
| > 100 µM | > 100 µM |  | N=c1cc2c(nn1CCCCCCCCCCC(=O)Nc1ccc(-c3ccccc3)nn1)-c1ccccc1CC2 | 13 µM | 15 µM | 20 µM | 21.6% | 17.3% |
| 3 µM | > 100 µM | > 100 µM | N=c1ccc(-c2ccccc2)nn1CCCCCCCCCCC(=O)Nc1ccc(-c2ccccc2)nn1 | 22 µM |  |  |  |  |
| 31 µM | > 100 µM | > 100 µM | Cc1ccc(=N)n(CCCCCCCCCCC(=O)Nc2ccc(-c3ccccc3)nn2)n1 | > 100 µM |  |  |  |  |
| > 100 µM | > 100 µM | > 100 µM | Cc1cc(-c2ccccc2)nnc1NCCN1CCOCC1 [MINAPRINE] | > 100 µM |  |  |  |  |
